Experimental data published in patent US20220401574A1, “CARDIOPROTECTIVE MICROBUBBLE-LIPOSOMAL DRUG COMPLEXES” (UNIVERSITY OF PITTSBURGH - OF THE COMMONWEALTH SYSTEM OF …, priority 2019, published 2022).
Marks after values point to notes of the source that are not given here.

Assays:
[1] = test system: MCA 205 murine sarcoma cells; test: Acute cell viability, trypan blue exclusion assay; type: cell-based; conditions: 8 μg/mL, without US
Method: (§1) MCA 205 murine sarcoma cells (generously provided by Dr. Walter J. Storkus at the University of Pittsburgh School of Medicine) were cultured in RPMI-1640 (Lonza, Biowhittaker, Basel, Switzerland), supplemented with 10% heat deactivated fetal bovine serum (FBS) and 1% penicillin-streptomycin at 37° C., and sub-cultured every 2 days and used before 8 passage.
MCA 205 cells were suspended (5×10^4 cells in 500 μL media) in capped sterile polystyrene tubes. One of the following formulations was added to the tubes: DoxLPX, LDox, free Dox, ELPX, LDox+MB (e.g, unconjugated LDox and MB). […] Cell viability was evaluated 30 min later using the trypan blue exclusion assay where controls comprised identical tubes not exposed to US.
Live cells and total cell number were counted on a hemocytometer using an inverted microscope (Motic AE21, Scientific Instrument Company, Campbell, Calif.). Acute cell viability was quantified as the number of the live cells (trypan blue negative) divided by the total cell numbers. Each treatment condition was repeated independently three times.

[2] = test system: MCA 205 murine sarcoma cells; test: Long-term cell viability, alamaBlue assay; type: cell-based; conditions: without US, 24, 48, 72 h
Method: as §1
Control conditions included cells mixed with free Dox, LDox, DoxLPX, ELPX without US treatment and untreated cells. After 1 h incubation, the wells were replaced with 500 μL fresh media. At 24, 48, and 72 h, the cells were incubated in 500 μL media containing 50 μg/mL alamaBlue® for 1 h. Thereafter, 100 μL media in each well was sampled and assayed on a plate reader (Beckman Coulter, DTX-880 Multimode detector, Brea, Calif.) at a wavelength of λex=530 nm and λem=590 nm. The same volume of media containing alamaBlue® was added in empty wells in the same 24-well plate to be used as the baseline absorbance. The percentage of viability at 24, 48, and 72 h was calculated by normalizing to that of untreated cells. As Dox-induced cytotoxicity takes about 48 hours to manifest, acute cytotoxicity (trypan blue assay) was attributed to ultrasound-microbubble interaction. […]

[3] = test system: MCA205 sarcoma; test: In vivo tumor treatment: tumor growth and survival; design: species or system mice; conditions: for Median survival time ± standard deviation: US Pulse 3 for MB formulations
Method: This example provides in vivo studies were performed using the Pulse 3 US regime. […] Treatments were infused over 15 min via internal jugular indwelling catheter on Days 0, 3, 7, 10.
Murine sarcoma model. The animal protocols were approved by the University of Pittsburgh Institutional Animal Care and Use Committee and conform to the Policy on Human Care and Use of Laboratory Animals. Female mice were used due to their susceptibility to Dox cardiotoxicity. Lipshultz et al., “Assessment of dexrazoxane as a cardioprotectant in doxorubicin-treated children with high-risk acute lymphoblastic leukaemia: long-term follow-up of a prospective, randomised, multicentre trial” Lancet Oncol. […] Eight-week-old female C57BL/6 mice were obtained from Jackson lab and housed in the animal facility of the Division of Laboratory Animal Resources at the University of Pittsburgh.
The pulse was repeated 500 times, with the pulse train repeated every 2.5 s to allow MB reperfusion into the target area. The overall duty cycle was 10%. The spatial peak temporal average intensity was 0.16 W/cm^2. The US treatment was continued for approximately 3-5 minutes after the intravenous MB infusion was completed to achieve complete MB destruction (e.g., ˜12-15 min total sonication time).
Tumor growth was evaluated by high-resolution 3D US imaging of the tumor using automated scanning (Vevo2100, Visualsonics, Ontario, Canada) at 21 MHz with a 0.2-mm step size between cross-sections. Tumor cross-sections were manually outlined and tumor volumes were calculated from 3D reconstructions of the outlined area. This technique can measure subcutaneous tumors with an irregular shape with an accuracy of ±20 mm^3. Tumor growth over time was fit to an exponential curve (y)=X0·e^kt, where X0 represents initial tumor volume, and t stands for time in days. Doubling times (DT) were calculated as DT=(Ln2)/k.
Treatments with various Dox formulations commenced when tumor volume reached 40-90 mm^3. The mice were randomly assigned to 1 of 6 treatment groups.
On the first day of treatment, the tumor bearing mice were anesthetized with 2% isoflurane in oxygen and an indwelling catheter was placed in the internal jugular vein to facilitate multiple intravenous infusions over time. See, FIG. 1B. […] See, FIG. 1B.
Tumor volume and cardiac function were serially evaluated for up to 42 days using ultrasound imaging. Echocardiography was performed every 7 days after the 1st treatment. On day 42, or if tumor volume exceeded 1,600 mm^3 before day 42, the mice were euthanized under deep anesthesia (5% isofluorane). Tumor and heart were harvested, washed with cold saline, then were cryopreserved or fixed with 10% formalin overnight, embedding in paraffin block and sectioning for further histology analysis.

[4] = test system: left ventricular function; test: Assessment of cardiac function by serial echocardiography; type: in vivo, mice
Method: Two-dimensional short-axis images were obtained using a high-resolution Micro-Ultrasound system (Vevo 2100, VisualSonics Inc.) in B-mode and M-mode from parasternal short-axis view. […] LV mass index was calculated as LV mass/mouse body weight (g) on the day of measurement. […] Tumor volume and cardiac function were serially evaluated for up to 42 days using ultrasound imaging. Echocardiography was performed every 7 days after the 1st treatment. […] Ejection fraction […] and left ventricular (LV) mass index data within each treatment group were compared to that on day 0 (baseline) within the group using a two-tail t-test. The percentage of mice with changes in ejection fraction, fractional shortening and LV mass index, categorized as mild, moderate or severe, was compared between groups using Chi-square test, and differences between two groups were compared using Fisher's exact test. Kaplan-Meier survival curves were compared between groups using the log-rank test for trend.

[5] = test system: heart tissue; test: Cardiac histopathology (H&E) and fibrosis analysis (Sirius red/fast green); type: in vivo, mice; conditions: for myocardial fibrosis / collagen deposition: Sirius red/fast green staining
Method: Routine hematoxylin and eosin (H&E) stained heart tissue slides were made for histologic examination. Sirius red/fast green staining was performed on heart tissue sections post-fixed in paraffin blocks. Twenty-three (23) Images were obtained on an Olympus IX81 microscope interfaced with a digital CCD camera (Olympus DP71) and quantitated using ImageJ 1.5 software.

[6] = test system: caspase-3; test: Caspase-3 activity assay in heart tissue; type: in vivo, mice; conditions: heart tissue homogenate
Method: Heart tissue was washed twice with cold PBS and lysed in lysis buffer (50 mM HEPES, pH 7.4, with 5 Mm CHAPS, and 5 mM DTT). Tissue lysates were centrifuged at 10,000 rcf for 15 min, and the total protein concentration was measured using a BCA assay kit (Thermo Fisher Scientific, MA). Caspase-3 activity assay was performed in triplicate in 96-well plates. For each protease assay, 200 μL assay buffer (100 mM HEPES, pH 7.2, 10% sucrose, 0.1% CHAPS, 1 Mm Na-EDTA, and 2 mM DTT) containing 50 μM Ac-DEVD-AMC (Enzo life, Farmingdale, N.Y.) was incubated with 50 μg lysate protein at 37° C. for 1 h.
Caspase-3 activity was measured by AMC liberation from Ac-DEVD-AMC substrate at 380/460 nm using a plate reader (Beckman Coulter, DTX-880 Multimode detector, Brea, Calif.). Relative fluorescence of substrate control was subtracted as background emission. Free AMC (Enzo life, NY) was used to make the standard curve: […]

[7] = design: risk of cardiotoxicity occurrence: dose or concentration left out as unconfirmed; conditions: cited from earlier work
[8] = Biodistribution assessment with Cy5.5 as Dox analog; type: in vivo, mice; conditions: organs harvested 3.5 hours after treatment, imaging
From the text: To assess bio-distribution of the drug post ultrasound treatment, Cy5.5 was used as a fluorescent Dox analog, injected i.v. as: Cy5.5-NH2, liposomal Cy5.5, liposomal Cy5.5+MB, Cy5.5LPX, and mice were euthanized 3.5 hrs later. Blood, tumor, spleen, kidney, liver, heart, lung, brain, skin on the back, muscle, femur (bone), and foot were imaged post-mortem and measured using a Xenogen IVIS 200 imaging system.
This example determines the fate of liposomal lipids and Dox after in vivo delivery. […]
To further quantify the distribution of Cy5.5-NH2, tumor, spleen, kidney, liver, heart, and lung were wet-weighed and […] of each tissue specimen were homogenized in 200 μL lysis buffer (50 mM HEPES, 50 mM NaCl, 1% Triton X-100, 5 mM EDTA, and 15 mM DTT) using a sonicator homogenizer (Sonicator Ultrasonic Processor XL, Misonix, Farmingdale, N.Y.) in Eppendorf tubes immersed in an ice-water. […]
50 μL supernatant of each specimen was added in black 384 well plates. Cy5.5-NH2 fluorescence intensity of 3 parallel samples of each organ was determined at Ex/Em 680/710 nm using a plate reader (Infinite 200 PRO, Tecan, Männedorf, Switzerland). […]

[9] = cited from earlier work

COc1cccc2c1C(=O)c1c(O)c3c(c(O)c1C2=O)C[C@@](O)(C(=O)CO)C[C@@H]3O[C@H]1C[C@H](N)[C@H](O)[C@H](C)O1 [Dox, Doxorubicin]
cell membrane integrity [1]: did not change the cell membrane integrity
cytotoxicity / cell viability ([2]; listed as Free Dox): more cytotoxicity than DoxLPX in the absence of US
cytotoxicity / cell viability ([2]; listed as free Dox): highest cytotoxicity at 24, 48, and 72 h
Median survival time ± standard deviation ([3]; 5 mg/kg equiv. Dox i.v., 4 treatments): 28.0 ± 7.5 days
Median survival time ± standard deviation ([3]; 5 mg/kg equiv. Dox i.v., 4 treatments, listed as free Dox): 28 days
prolongation of median survival ([3]; as compared to controls): 14%
tumor volume as % of original (baseline) tumor volume ([3]; by Day 17.5): 610%
Tumor doubling time ([3]; exponential fit of tumor volume, 5 mg/kg equiv. Dox i.v., 4 treatments): 7.1 ± 1.0**^,# Day
LVIDs, LVIDd change ([4]; Day 14 or Day 21 vs. Day 0): Significant increases
mice with severely increased LV mass index ([4]; Day 21 vs. Day 0): 20.0%
mice with severe reduction in EF ([4]; day 21): 40%
mice with severe reduction in FS ([4]; day 21): 30%
LV mass index change ([4]; vs. Day 0): significantly increased LV mass index on day 14
LV mass over time ([4]; vs. baseline, up to Day 21): significantly greater than baseline by Day 14
ejection fraction (EF) and fractional shortening (FS) over time ([4]; vs. baseline, up to Day 21): progressive decline in ejection fraction (EF) and fractional shortening (FS)
myocardial fibrosis / collagen deposition [5]: significantly more areas of patchy myocardial interstitial fibrosis and perivascular fibrosis
myocardial fibrosis / collagen deposition ([5]; listed as free Dox): induced moderate myocardial interstitial and perivascular fibrosis
histological damage to heart tissue ([5]; hematoxylin/eosin staining, accumulative dosage 20 mg/kg): disorganization of myofibrillar arrays (first left panel of Dox group) and focal cytoplasmic vacuolization
caspase-3 activity in cardiac tissue [6]: higher than that in mice treated with DoxLPX+US
risk of cardiotoxicity occurrence ([7]; clinically): 26%
maximal tolerated cumulative dose ([7]; in vivo): 400-550 mg/m2

C[N+]1=C(/C=C/C=C/C=C2/N(CCCCCC(=O)NCCCCCCN)c3ccc4ccccc4c3C2(C)C)C(C)(C)c2c1ccc1ccccc21.Cl.[Cl-] [Cy5.5-NH2, Cyanine5.5-amine]
ex vivo Cy5.5 fluorescence in organs [8]: noticeable Cy5.5 fluorescence in the heart and skeletal muscle
water solubility [9]: moderate water solubility
acid dissociation constant (pKa) ([9]; primary amine group): higher than 7
